Values of other authors in patent US12686008B2, “Microfluidic device having specifically designed detection chambers” (Bifrost Biosystems Inc., priority 2020, dated 2026).
Where no end group is shown, it is not given here.

Conditions: literature values, refs [18, 19]; test organism not given

Substance: VDKPPYLPRPRPPRRIYNR-NH2 [Oncocin]
- MIC: 0.42 µM

Substance: LL-37
- MIC: 1.5 µM
